Assay [1] concerns the target human sodium channels Nav 1.7 (Homo sapiens (Human), UniProt Q15858). The assay can be described thus: Automated whole-cell voltage-clamp (ScreenPatch 384P), Nav 1.7 sodium current, Protocol 1. The assay is classed as cell-based. The note with it: CHO cells expressing human Nav 1.7; for IC50: Protocol 1 (holding −90 mV, 0.1 Hz), room temperature, read-out: Nav1.7 IC50; for inhibition at 10 µM: Protocol 1, read-out: Nav1.7 percent of inhibition (IC50 value not available). Here is the method: (§1) Biological assays were performed on Chinese hamster ovary (CHO) cells expressing the human sodium channels Nav 1.8 and Nav 1.7 stably.
(§2) The experimental voltage-clamp protocol using the whole cell configuration was established on the automated ScreenPatch® 384P platform (SP384PE, Nanion Technologies, Livingston, NJ) and recording of the results was performed with a Nanion 384-well Patch Clamp chip (NPC) (Nanion Technologies, Livingston, NJ).
(§3) Compounds of Formula (I), were diluted in eight concentrations in the extracellular solution composed of physiological saline, buffered with HEPES (mM): NaCl, 137; KCl, 4; CaCl2, 3.8; MgCl2, 1; HEPES, 10; Glucose, 10; pH 7.4. The […], 50; CsF, 90; MgCl2, 5; EGTA, 5; HEPES, 10; pH 7.2. The duration of exposure of each compound with the cells expressing Nav 1.7 or Nav 1.8 was at least five minutes and the assays were performed at room temperature.
(§4) The measurements of the sodium currents of Nav 1.8 and Nav 1.7 were obtained using the voltage protocols described below: • Protocol 1: A holding voltage of −90 mV was established followed by a voltage phase of 200 ms to −120 mV, followed by a voltage step of 10 mV for 1 second for Nav 1.8 or 0 mV for Nav 1.7, followed by a step of −100 mV for 20 ms, followed by a step of 20 ms for 10 mV for Nav 1.8 or 0 mV for Nav 1.7 (TP1A) before returning to the holding voltage of −90 mV. • Protocol 2: A holding voltage of −100 mV was established followed by an inactivation voltage step at −40 mV for 8 seconds, followed by a −100 mV step for […], followed by a 20 ms step for 10 mV for Nav 1.8 or 0 mV for Nav 1.7 (TP1A) before returning to the holding voltage of −100 mV.
(§5) Protocols were repeated at a frequency of 0.1 Hz (Protocol 1) or 0.05 Hz (Protocol 2) and current amplitude was quantified over the TP1A phase log. The variation in the peak amplitude of the current was evaluated according to the Formula described below, after exposure of the cells expressing the channels, at each concentration of the different compounds:
(§6) [formula] • where |TP1A, basal, and |TP1A, molecule represent the entry peaks of sodium currents into TP1A prior to exposure to the compound and in the presence of the compound, respectively.
(§7) The decrease in peak current amplitude, after exposure of the cells to the compounds, was used to calculate the percent relative blocking of the channels relative to the positive control according to the Formula below:
(§8) [formula] • where % V and % CP represent the averages of the values of current inhibition with a vehicle (DMSO) and positive controls, respectively. The sodium currents of the positive control were considered as 100%.
(§9) [formula] • where [Test] represents the concentration of the evaluated molecule, IC50 is the concentration of the compound that generates half of the maximum inhibition, N is the Hill's coefficient and % Block′ is the percentage of the sodium channel current (Nav 1.8 and Nav 1.7) inhibited at each concentration of the evaluated molecule. Data were obtained by non-linear least squares regression with XLfit for Excel (Microsoft, Redmond, WA).
(§10) Compounds were tested in at least one assay to obtain the IC50 value.

Assay [2] concerns the target human sodium channels Nav 1.8 (Homo sapiens (Human), UniProt Q9Y5Y9). As to the kind of experiment: Automated whole-cell voltage-clamp (ScreenPatch 384P), Nav 1.8 sodium current, Protocol 1. The assay is classed as cell-based. The note with it: CHO cells expressing human Nav 1.8; for IC50: Protocol 1 (holding −90 mV, 0.1 Hz), room temperature, read-out: Nav1.8 IC50; for inhibition at 10 µM: Protocol 1, read-out: Nav1.8 percent of inhibition (IC50 value not available). On the procedure: as §1, §2, §3, §4, §5, §6, §7, §8, §9, §10

Sequence of human sodium channels Nav 1.8 (Q9Y5Y9 whole entry): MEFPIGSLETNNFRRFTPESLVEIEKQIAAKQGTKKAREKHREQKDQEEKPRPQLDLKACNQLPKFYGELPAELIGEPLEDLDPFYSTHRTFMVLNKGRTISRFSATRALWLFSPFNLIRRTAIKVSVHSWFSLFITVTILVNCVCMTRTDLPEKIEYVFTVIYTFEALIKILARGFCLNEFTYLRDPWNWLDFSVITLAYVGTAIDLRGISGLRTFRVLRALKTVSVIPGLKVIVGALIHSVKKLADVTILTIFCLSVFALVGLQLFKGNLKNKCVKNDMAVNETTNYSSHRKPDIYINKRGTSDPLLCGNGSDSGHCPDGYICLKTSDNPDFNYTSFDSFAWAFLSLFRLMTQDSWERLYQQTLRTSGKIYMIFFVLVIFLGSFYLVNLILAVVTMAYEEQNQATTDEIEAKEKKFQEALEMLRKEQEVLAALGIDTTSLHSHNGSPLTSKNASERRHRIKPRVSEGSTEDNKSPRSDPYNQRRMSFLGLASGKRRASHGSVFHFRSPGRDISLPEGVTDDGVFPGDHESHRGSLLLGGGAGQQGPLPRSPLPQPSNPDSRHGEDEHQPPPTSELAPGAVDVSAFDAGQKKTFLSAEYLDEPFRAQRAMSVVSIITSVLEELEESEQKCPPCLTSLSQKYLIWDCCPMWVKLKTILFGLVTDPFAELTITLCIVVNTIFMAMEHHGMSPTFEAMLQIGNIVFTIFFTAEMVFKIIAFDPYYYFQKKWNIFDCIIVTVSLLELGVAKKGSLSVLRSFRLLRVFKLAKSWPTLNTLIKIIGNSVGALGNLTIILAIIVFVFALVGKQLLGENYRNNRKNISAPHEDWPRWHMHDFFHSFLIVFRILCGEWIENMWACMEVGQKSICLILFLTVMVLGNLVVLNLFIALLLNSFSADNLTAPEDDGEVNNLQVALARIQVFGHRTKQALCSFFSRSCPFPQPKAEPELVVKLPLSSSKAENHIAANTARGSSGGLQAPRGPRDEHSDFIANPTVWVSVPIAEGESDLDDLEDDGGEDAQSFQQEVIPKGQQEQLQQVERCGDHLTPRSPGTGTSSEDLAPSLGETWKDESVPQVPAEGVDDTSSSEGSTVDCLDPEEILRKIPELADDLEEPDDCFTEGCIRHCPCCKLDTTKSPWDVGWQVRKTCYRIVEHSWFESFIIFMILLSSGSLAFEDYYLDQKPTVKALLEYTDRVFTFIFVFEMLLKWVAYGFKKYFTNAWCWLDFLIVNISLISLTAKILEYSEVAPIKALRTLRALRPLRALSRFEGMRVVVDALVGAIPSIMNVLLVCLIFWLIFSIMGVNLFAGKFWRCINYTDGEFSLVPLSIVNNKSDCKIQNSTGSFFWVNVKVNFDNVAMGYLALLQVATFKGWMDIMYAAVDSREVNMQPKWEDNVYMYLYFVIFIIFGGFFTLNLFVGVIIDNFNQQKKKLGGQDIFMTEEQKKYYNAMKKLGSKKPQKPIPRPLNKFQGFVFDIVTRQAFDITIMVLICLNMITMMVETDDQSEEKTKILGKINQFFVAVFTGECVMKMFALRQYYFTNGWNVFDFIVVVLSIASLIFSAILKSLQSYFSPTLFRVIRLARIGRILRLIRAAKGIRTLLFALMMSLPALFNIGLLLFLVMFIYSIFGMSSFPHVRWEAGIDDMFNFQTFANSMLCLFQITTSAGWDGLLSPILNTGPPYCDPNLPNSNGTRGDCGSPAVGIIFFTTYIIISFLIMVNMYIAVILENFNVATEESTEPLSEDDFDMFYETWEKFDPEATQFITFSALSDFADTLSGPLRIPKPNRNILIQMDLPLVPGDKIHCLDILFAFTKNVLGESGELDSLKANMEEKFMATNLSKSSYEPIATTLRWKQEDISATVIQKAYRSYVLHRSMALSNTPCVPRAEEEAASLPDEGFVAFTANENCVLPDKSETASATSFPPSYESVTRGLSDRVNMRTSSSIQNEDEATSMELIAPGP
Sequence of human sodium channels Nav 1.7 (Q15858 whole entry): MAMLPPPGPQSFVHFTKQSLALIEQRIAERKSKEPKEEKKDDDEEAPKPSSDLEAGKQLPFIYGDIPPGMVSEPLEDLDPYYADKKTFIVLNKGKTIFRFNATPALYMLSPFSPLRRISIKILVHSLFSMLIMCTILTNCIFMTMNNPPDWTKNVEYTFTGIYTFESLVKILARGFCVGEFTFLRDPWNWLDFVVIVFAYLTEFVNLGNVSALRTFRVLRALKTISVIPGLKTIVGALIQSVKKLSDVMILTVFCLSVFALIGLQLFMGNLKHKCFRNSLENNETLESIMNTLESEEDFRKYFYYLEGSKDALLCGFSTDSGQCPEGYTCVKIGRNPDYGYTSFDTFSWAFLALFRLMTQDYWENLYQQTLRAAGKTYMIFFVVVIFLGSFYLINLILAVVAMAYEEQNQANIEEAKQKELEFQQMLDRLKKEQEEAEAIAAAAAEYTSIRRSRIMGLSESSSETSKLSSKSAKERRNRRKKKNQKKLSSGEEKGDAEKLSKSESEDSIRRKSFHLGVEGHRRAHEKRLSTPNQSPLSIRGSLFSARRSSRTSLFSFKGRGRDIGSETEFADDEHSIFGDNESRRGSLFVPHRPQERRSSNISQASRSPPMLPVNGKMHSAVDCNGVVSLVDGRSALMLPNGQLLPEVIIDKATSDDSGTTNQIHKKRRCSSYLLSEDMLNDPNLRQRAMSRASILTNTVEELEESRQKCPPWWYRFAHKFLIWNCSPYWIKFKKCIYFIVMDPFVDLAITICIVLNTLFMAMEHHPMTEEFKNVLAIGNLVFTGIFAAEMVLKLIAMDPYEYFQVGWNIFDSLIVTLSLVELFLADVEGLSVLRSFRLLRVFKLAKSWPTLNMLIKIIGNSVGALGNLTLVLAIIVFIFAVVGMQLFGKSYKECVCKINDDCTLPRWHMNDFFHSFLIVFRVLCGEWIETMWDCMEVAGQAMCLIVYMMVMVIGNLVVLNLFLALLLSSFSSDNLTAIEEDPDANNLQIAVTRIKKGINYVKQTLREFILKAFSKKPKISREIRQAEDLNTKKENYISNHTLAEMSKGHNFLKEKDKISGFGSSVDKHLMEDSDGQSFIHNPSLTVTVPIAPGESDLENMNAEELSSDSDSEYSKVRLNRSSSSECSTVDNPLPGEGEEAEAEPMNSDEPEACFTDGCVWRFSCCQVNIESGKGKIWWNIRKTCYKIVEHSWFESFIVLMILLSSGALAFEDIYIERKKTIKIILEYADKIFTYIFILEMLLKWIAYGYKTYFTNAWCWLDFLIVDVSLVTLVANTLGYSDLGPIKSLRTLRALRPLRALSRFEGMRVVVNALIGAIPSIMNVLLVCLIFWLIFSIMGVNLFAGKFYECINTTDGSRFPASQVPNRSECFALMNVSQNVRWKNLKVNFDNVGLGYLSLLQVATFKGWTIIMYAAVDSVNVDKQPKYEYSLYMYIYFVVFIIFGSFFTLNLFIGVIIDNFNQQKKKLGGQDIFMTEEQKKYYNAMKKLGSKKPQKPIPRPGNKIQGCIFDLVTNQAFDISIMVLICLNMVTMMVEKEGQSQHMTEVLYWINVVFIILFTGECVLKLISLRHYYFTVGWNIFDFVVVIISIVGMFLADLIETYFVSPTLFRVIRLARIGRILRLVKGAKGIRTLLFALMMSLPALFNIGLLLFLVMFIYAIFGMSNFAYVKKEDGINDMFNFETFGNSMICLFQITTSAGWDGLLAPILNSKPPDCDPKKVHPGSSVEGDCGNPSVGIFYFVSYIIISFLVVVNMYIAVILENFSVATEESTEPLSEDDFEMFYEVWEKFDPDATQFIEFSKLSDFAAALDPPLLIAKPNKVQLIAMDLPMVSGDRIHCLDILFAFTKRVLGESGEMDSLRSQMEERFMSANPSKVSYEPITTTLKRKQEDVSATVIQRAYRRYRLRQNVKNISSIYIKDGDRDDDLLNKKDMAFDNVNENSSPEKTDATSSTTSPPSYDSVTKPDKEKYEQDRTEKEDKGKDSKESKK

In the case of `COc1cc(/C=N/NC(=O)c2ccc(-c3ccc(Cl)cc3)o2)cc(OC)c1` [Compound 2, (E)-5-(4-chlorophenyl)-N′-(3,5-dimethoxybenzylidene) furan-2-carbohydrazide], the IC50 in assay [1] and in assay [2] was > 30 µM in each case.

Take `CCOc1ccc(-c2ccc(C(=O)N/N=C/c3cccs3)o2)cc1` [Compound 3, (E)-5-(4-ethoxyphenyl)-N′-(thiophen-2-ylmethylene) furan-2-carbohydrazide]: the IC50 in assay [1] and in assay [2] was > 30 µM throughout.

For the compound `CCOc1ccc(-c2ccc(C(=O)N/N=C/c3cccnc3N3CCOCC3)o2)cc1` [Compound 4, (E)-5-(4-ethoxyphenyl)-N′-((2-morpholinopyridin-3-yl)methylene) furan-2-carbohydrazide], the inhibition at 10 µM in assay [1] and in assay [2] was < 10% in each case.

For the compound `CCOc1ccc(-c2ccc(C(=O)N/N=C/c3cc(CN(C)C)cs3)o2)cc1` [Compound 5, (E)-N′-((4-((dimethylamino)methyl)thiophen-2-yl)methylene)-5-(4-ethoxyphenyl) furan-2-carbohydrazide], the inhibition at 10 µM in assay [1] and in assay [2] was < 10% each time.

Turning to `CCOc1ccc(-c2ccc(C(=O)N/N=C/c3cccnc3)o2)cc1` [Compound 6, (E)-5-(4-ethoxyphenyl)-N′-(pyridin-3-ylmethylene) furan-2-carbohydrazide], the inhibition at 10 µM in assay [1] and in assay [2] was < 10% each time.

As to `CC(C)Oc1ccc(-c2ccc(C(=O)N/N=C/c3cccs3)o2)cc1` [Compound 7, (E)-5-(4-isopropoxyphenyl)-N′-(thiophen-2-ylmethylene) furan-2-carbohydrazide], the IC50 (in general, the point on the concentration scale where inhibition reaches its midpoint) was > 16.7 µM in assay [1] and > 6.27 µM in assay [2].

Take `CC(C)Oc1ccc(-c2ccc(C(=O)N/N=C/c3cc(CN(C)C)cs3)o2)cc1` [Compound 8, (E)-N′-((4-((dimethylamino)methyl)thiophen-2-yl)methylene)-5-(4-isopropoxyphenyl) furan-2-carbohydrazide]: the inhibition at 10 µM in assay [1] and in assay [2] was < 10% each time.

Consider `O=C(N/N=C/c1cccs1)c1ccc(-c2ccc(OCCN3CCOCC3)cc2)o1` [Compound 9, (E)-5-(4-(2-morpholinoethoxy)phenyl)-N′-(thiophen-2-ylmethylene) furan-2-carbohydrazide], for which the inhibition at 10 µM in assay [1] and in assay [2] was < 10% in each case.

For `O=C(N/N=C/c1cccs1)c1cccc(-c2ccc(Cl)cc2)n1` [Compound 11, (E)-6-(4-chlorophenyl)-N′-(thiophen-2-ylmethylene) picolinohydrazide], the IC50 turned out to be 12 µM in assay [1] and 8.58 µM in assay [2].

Regarding `CCOc1ccc(-c2cccc(C(=O)N/N=C/c3cccs3)n2)cc1` [Compound 12, (E)-6-(4-ethoxyphenyl)-N′-(thiophen-2-ylmethylene) picolinohydrazide], the IC50 in assay [1] stood at 1.89 µM; in assay [2] it was 3.21 µM.

`CC(C)Oc1ccc(-c2cccc(C(=O)N/N=C/c3cccs3)n2)cc1` [Compound 13, (E)-6-(4-isopropoxyphenyl)-N′-(thiophen-2-ylmethylene) picolinohydrazide]: the inhibition at 10 µM in assay [1] and in assay [2] was < 10% each time.

In the case of `COc1cc(/C=N/NC(=O)c2cncc(-c3ccc(Cl)cc3)c2)cc(OC)c1` [Compound 16, (E)-5-(4-chlorophenyl)-N′-(3,5-dimethoxybenzylidene) nicotinohydrazide], the IC50 in assay [1] was 4.12 µM; in assay [2], 4.25 µM.

As to `COc1cc(/C=N/NC(=O)c2cncc(-c3ccc(OC(F)(F)F)cc3)c2)cc(OC)c1` [Compound 17, (E)-N′-(3,5-dimethoxybenzylidene)-5-(4-(trifluoromethoxy)phenyl) nicotinohydrazide], the IC50 is 7.09 µM in assay [1] and 6.83 µM in assay [2].

In the case of `CCOc1ccc(-c2cncc(C(=O)N/N=C/c3cc(OC)cc(OC)c3)c2)cc1` [Compound 18, (E)-N′-(3,5-dimethoxybenzylidene)-5-(4-ethoxyphenyl) nicotinohydrazide], the IC50 is 7.09 µM in assay [1] and 6.83 µM in assay [2].

On to `COc1cc(/C=N/NC(=O)c2cncc(-c3ccc(OC(C)C)cc3)c2)cc(OC)c1` [Compound 19, (E)-N′-(3,5-dimethoxybenzylidene)-5-(4-isopropoxyphenyl) nicotinohydrazide], for which the figures for the IC50 in assay [1] and in assay [2] were 5.72 µM and 5.9 µM, respectively.

For `COc1cc(/C=N/NC(=O)c2ccnc(-c3ccc(Cl)cc3)c2)cc(OC)c1` [Compound 20, (E)-2-(4-chlorophenyl)-N′-(3,5-dimethoxybenzylidene) isonicotinohydrazide], the inhibition at 10 µM in assay [1] and in assay [2] was < 10% each time.

Turning to `COc1cc(/C=N/NC(=O)c2ccnc(-c3ccc(OC(F)(F)F)cc3)c2)cc(OC)c1` [Compound 21, (E)-N′-(3,5-dimethoxybenzylidene)-2-(4-(trifluoromethoxy)phenyl) isonicotinohydrazide], the inhibition at 10 µM in assay [1] and in assay [2] was < 10% throughout.

Turning to `CCOc1ccc(-c2cc(C(=O)N/N=C/c3cc(OC)cc(OC)c3)ccn2)cc1` [Compound 22, (E)-N′-(3,5-dimethoxybenzylidene)-2-(4-ethoxyphenyl) isonicotinohydrazide], the IC50 in assay [1] and in assay [2] was > 10 µM each time.

`COc1cc(/C=N/NC(=O)c2ccnc(-c3ccc(OC(C)C)cc3)c2)cc(OC)c1` [Compound 23, (E)-N′-(3,5-dimethoxybenzylidene)-2-(4-isopropoxyphenyl) isonicotinohydrazide]: the IC50 in assay [1] and in assay [2] was > 10 µM each time.

Consider `COc1cc(/C=N/NC(=O)c2cccc(-c3ccc(OC(C)C)cc3)n2)cc(OC)c1` [Compound 24, (E)-N′-(3,5-dimethoxybenzylidene)-6-(4-isopropoxyphenyl) picolinohydrazide], for which the IC50 in assay [1] turned out to be 5.72 µM; in assay [2], 5.9 µM.

In the case of `COc1ccc(-c2cncc(C(=O)N/N=C/c3cc(OC)cc(OC)c3)c2)cc1` [Compound 25, (E)-N′-(3,5-dimethoxybenzylidene)-5-(4-methoxyphenyl) nicotinohydrazide], the IC50 in assay [1] and in assay [2] was > 10 µM each time.

Regarding `CCCOc1ccc(-c2cncc(C(=O)N/N=C/c3cc(OC)cc(OC)c3)c2)cc1` [Compound 26, (E)-N′-(3,5-dimethoxybenzylidene)-5-(4-propoxyphenyl) nicotinohydrazide], the half-inhibitory concentration (IC50) in assay [1] is 3.5 µM; in assay [2], > 10 µM.

Regarding `CCCCOc1ccc(-c2cncc(C(=O)N/N=C/c3cc(OC)cc(OC)c3)c2)cc1` [Compound 27, (E)-5-(4-butoxyphenyl)-N′-(3,5-dimethoxybenzylidene) nicotinohydrazide], the IC50 in assay [1] and in assay [2] was > 10 µM each time.

With `COc1cc(/C=N/NC(=O)c2cncc(-c3ccc(OC4CCCC4)cc3)c2)cc(OC)c1` [Compound 28, (E)-5-(4-(cyclopentyloxy)phenyl)-N′-(3,5-dimethoxybenzylidene) nicotinohydrazide], the IC50 in assay [1] and in assay [2] was > 10 µM throughout.

Take `COc1ccc(-c2cc(C(=O)N/N=C/c3cc(OC)cc(OC)c3)ccn2)cc1` [Compound 29, (E)-N′-(3,5-dimethoxybenzylidene)-2-(4-methoxyphenyl) isonicotinohydrazide]: the IC50 in assay [1] and in assay [2] was > 10 µM throughout.

For the origin of these results see patent publication US20240335420A1, “N-ACYLHYDRAZONE COMPOUNDS CAPABLE OF INHIBITING NAV 1.7 AND/OR NAV 1.8, PROCESSES FOR THE PREPARATION THEREOF, COMPOSITIONS, USES, METHODS FOR TREATMENT USING SAME AND KITS” (EUROFARMA LABORATÓRIOS S.A., priority 2021, published 2024).
